Assay results published in patent publication US11648205B1, “Buccal formulation of avanafil with enhanced bioavailability and prolonged duration” (King Abdulaziz University, priority 2022, dated 2023).
Values after ≈ are worked out from the molar mass of the structure shown.

Assay: Solubility study of AVA-solid dispersions in distilled water
Type: physicochemical
Conditions: thermodynamic from solid, shaking water bath 48 h
Protocol: A solubility study for the prepared solid dispersions was conducted separately in distilled water, as described previously, with full details published (34). In screw-capped vials, 10 mL of distilled water was placed, and an excess amount of either the pure drug or the prepared solid dispersions was added. The vials were kept in a shaking water bath, for 48 h, in a thermostatically controlled shaking water bath (Model 1031; GFL Corporation, Burgwedel, Germany). Samples from the vial were obtained and were determined in triplicate using spectrophotometric assay at λmax 285 nm, and the data were expressed as the average ± the standard deviation. The AVA-solid dispersion with the highest water solubility was determined and selected for further investigations. Powder X-ray Diffraction (PXRD)

COc1ccc(CN=c2[nH]c(N3CCC[C@H]3CO)ncc2C(=O)NCc2ncccn2)cc1Cl [AVA, Avanafil]
solubility at 48 h: 3 µg/mL (≈ 6.2 µM)
